{
  "source": "patent US4209439A",
  "about": "“Stabilization of vinyl resins” (priority 1977, dated 1980)",
  "key": {"[1]": {"assay": "migration of stabiliser from PVC bottles into water at 50° C.", "type": "physicochemical", "settings": "water 50° C.", "protocol": "2.2--Study of the migration\nThe migration or the extractability of the stabiliser from the PVC compound under the effect of various liquids (and particularly water) stored in a plastic container is of essential importance for the use of these stabilisers in the field of food packagings.\n(§1) The technique as regards extraction was the following: using the formula which is given below, a batch of bottles (volume 1 liter, diameter 70 mm, height.perspectiveto.230 mm) was prepared, the said bottles being filled with a liquid simulating the foods. […] The migration of the stabiliser was judged by dosage of the pyridine present in the extractum, using the dosage method which is later described. This pyridine obviously represents the oxidised form of the extracted 1,4-dihydropyridine.\nThe investigation was particularly developed for water at 50° C. over a period of 2 months, because it represents the important problem regarding the packaging of mineral waters.\nFormula for the manufacture of bottles\nThe S L 2016 is a solution of zinc 2-ethyl hexanoate in a mixture of aromatic hydrocarbons boiling from 158° to 184° C.\n(§2) The stabilisers are measured out in the form of their oxidation product (pyridine).\n(§3) The oxidation is made quantitative by adding a few drops of iodine to the solution. The latter is then extracted with chloroform and the chloroform is evaporated to a small residual volume. The solution obtained is then subjected to thin-film chromatography, by comparison with solutions of known concentration of the desired pyridines.\n(§4) The sensitivity threshold of this technique is 5 μg/liter."}, "[2]": {"assay": "migration of stabiliser from PVC into solutions or solvents simulating foods at 50° C.", "type": "physicochemical", "protocol": "as §1, §2, §3, §4\nFor justifying the possibility of using the dihydropyridines (I) having a radical R comprising from 9 to 22 carbon atoms in applications concerned with food packaging, other than those applications relating to mineral waters, the extractability of the dihydropyridines by several solutions or solvents having the following composition, by weight, was investigated:\n(a) water-sodium chloride: 97-3\n(b) water-saccharose: 90-10\n(c) water-sodium chloride-acetic acid: 98.5-0.5-1\n(d) water-citric acid (solution at pH=5): 98-2\n(e) water-acetic acid: 97-3\n(f) water-acetic acid: 90-10\n(h) water-acetic acid: 50-50"}, "[3]": {"assay": "sublimation at 160° C. for 6 hours under nitrogen", "type": "physicochemical", "protocol": "A test sample of about 130 mg of the product to be investigated is introduced into a 100 cc beaker. The latter is placed in a 250 cc reactor. The temperature is kept at 160° C. by means of a thermostatically controlled oil bath for 6 hours, the atmosphere of the reactor being inert (nitrogen) in order to avoid the oxidation of the 1,4-dihydropyridine into pyridine, which is more sublimable.\nFor each dihydropyridine derivative which is investigated, the result is expressed as a percentage of sublimed product relatively to the quantity being used."}, "[4]": {"assay": "stabilisation of plasticised polyvinyl chloride resins: mixing at 180° C., pressing at 170° C.", "settings": "for Colour stability / Thermal stability: 180° C.", "protocol": "Sheets of polyvinyl chloride, previously mixed for 5 minutes at 180° C., were pressed for 5 minutes at 170° C., and the colour stability and the heat stability after mixing, and then the coloration of the sheets after pressing, were observed.\nAs adjuvants, as well as the stabiliser to be tested, the resin in question contains wax E, dioctyl phthalate, barium stearate and cadmium stearate, in the following proportions: […]"}, "[5]": {"assay": "thermostability of rigid vinyl chloride-vinylidene chloride copolymer, ventilated oven at 210° C.", "settings": "0.15 p.c.r.; Example 29", "protocol": "Rigid copolymer formula vinyl chloride-vinylidene chloride copolymer.\nPassage through a ventilated oven at 210° C.\nPassage through ventilated oven at 210° C.\nPassage in ventilated oven at 210° C."}, "[6]": {"assay": "polarographic study of the oxidation potential (Example 30)", "type": "physicochemical", "settings": "acetonitrile, lithium perchlorate; calomel electrode; in V (unit assumed)", "description": "261. Polarographic study of the oxidation potential […]\nreference electrode: a calomel electrode which contains, as junction liquid, a saturated solution of anhydrous lithium perchlorate working electrode: rotating electrode of vitreous carbon (2500 r.p.m.) counter-electrode: platinum. acetonitrile, having a water content smaller than 0.1% and not presenting any polarographic waves between -2.5 volts and +2.5 volts.\n0.1 M solution of lithium perchlorate in acetonitrile, treated and preserved on a molecular screen of 4 A. […]\nexploration amplitude: 0 to 2 V exploration speed: 10 mV/sec."}, "[7]": {"assay": "polarographic oxidation potential (Example 31)", "type": "physicochemical", "settings": "0.5 m.mole/liter; methanol/acetic acid; 35° C.", "protocol": "platinum counter-electrode and calomel electrode with filling by a saturated aqueous solution of lithium chloride.\nThe measurements were carried out in the following solvent:\n90 parts of an 0.1 M solution of lithium perchlorate in methanol, 10 parts of a 0.1 M solution of perchloric acid in acetic acid. square voltage superimposed with constant pulses of +10 millivolts, initial potential: 500 millivolts, scanning voltage: 1000 millivolts in the anode direction, oxidation at the vitreous carbon electrode (speed of rotation: 2000 r.p.m.)"}, "[8]": {"settings": "resin 5: 0.1, Ba 0.375, Cd 0.375"}, "[9]": {"settings": "resin 7: 0.05, Ba 0.375, Cd 0.15"}, "[10]": {"settings": "resin 9: 0.05, Ba 0.375, Cd 0.05"}},
  "data": [
    {"smiles": "COC(=O)C1=C(C)NC(C)=C(C(=O)OC)C1", "note": "[L.28504, 2,6-Dimethyl-3,5-dicarbomethoxy-1,4-dihydropyridine]", "values": [
      {"measurement": "Migration", "setting": "[1]; 0.15 pct, 1 month", "result": 70, "unit": "µg/L"},
      {"measurement": "Migration", "setting": "[1]; 0.15 pct, 2 months", "result": 80, "unit": "µg/L"},
      {"measurement": "Migration", "setting": "[1]; 0.15 pct, 10 days", "result": 15, "unit": "µg/L"},
      {"measurement": "Migration", "setting": "[1]; 0.15 pct, 20 days", "result": 40, "unit": "µg/L"},
      {"measurement": "Migration", "setting": "[1]; 0.30 pct, 1 month", "result": 120, "unit": "µg/L"},
      {"measurement": "Migration", "setting": "[1]; 0.30 pct, 2 months", "result": 120, "unit": "µg/L"},
      {"measurement": "Migration", "setting": "[1]; 0.30 pct, 10 days", "result": 70, "unit": "µg/L"},
      {"measurement": "Migration", "setting": "[1]; 0.30 pct, 20 days", "result": 100, "unit": "µg/L"},
      {"measurement": "Migration", "setting": "[2]; H2O/NaCl (97:3), 0.3, 1 month", "result": 100, "unit": "µg/L"},
      {"measurement": "Migration", "setting": "[2]; H2O/NaCl (97:3), 0.3, 2 months", "result": 120, "unit": "µg/L"},
      {"measurement": "Migration", "setting": "[2]; Heptane, 0.3 pcr, after 36 h", "result": 300, "unit": "µg/L"},
      {"measurement": "Migration", "setting": "[2]; Heptane, 0.3 pcr, after 84 h", "result": 390, "unit": "µg/L"},
      {"measurement": "Migration", "setting": "[2]; Water/C2H5OH (50:50), 0.3, 1 month", "result": 250, "unit": "µg/L"},
      {"measurement": "Migration", "setting": "[2]; Water/C2H5OH (85:15), 0.3, 1 month", "result": 150, "unit": "µg/L"},
      {"measurement": "Migration", "setting": "[2]; Water/C2H5OH (85:15), 0.3, 2 months", "result": 180, "unit": "µg/L"},
      {"measurement": "Migration", "setting": "[2]; Water/CH3COOH (50:50), 0.3, 1 month", "result": 150, "unit": "µg/L"},
      {"measurement": "Migration", "setting": "[2]; Water/CH3COOH (50:50), 0.3, 2 months", "result": 200, "unit": "µg/L"},
      {"measurement": "Migration", "setting": "[2]; Water/CH3COOH (90:10), 0.3, 1 month", "result": 120, "unit": "µg/L"},
      {"measurement": "Migration", "setting": "[2]; Water/CH3COOH (90:10), 0.3, 2 months", "result": 140, "unit": "µg/L"},
      {"measurement": "Migration", "setting": "[2]; Water/CH3COOH (97:3), 0.3, 1 month", "result": 90, "unit": "µg/L"},
      {"measurement": "Migration", "setting": "[2]; Water/CH3COOH (97:3), 0.3, 2 months", "result": 120, "unit": "µg/L"},
      {"measurement": "Migration", "setting": "[2]; Water/NaCl/CH3COOH (98,5:0,5:1), 0.3, 1 month", "result": 110, "unit": "µg/L"},
      {"measurement": "Migration", "setting": "[2]; Water/NaCl/CH3COOH (98,5:0,5:1), 0.3, 2 months", "result": 120, "unit": "µg/L"},
      {"measurement": "Migration", "setting": "[2]; Water/Sacchrose (90:10), 0.3, 1 month", "result": 100, "unit": "µg/L"},
      {"measurement": "Migration", "setting": "[2]; Water/Sacchrose (90:10), 0.3, 2 months", "result": 100, "unit": "µg/L"},
      {"measurement": "Migration", "setting": "[2]; Water/citric acid (98:2), pH 5, 0.3, 1 month", "result": 110, "unit": "µg/L"},
      {"measurement": "Migration", "setting": "[2]; Water/citric acid (98:2), pH 5, 0.3, 2 months", "result": 130, "unit": "µg/L"},
      {"measurement": "% of sublimed product", "setting": "[3]; 160° C., 6 hours, nitrogen", "result": 34.2, "unit": "%"},
      {"measurement": "sublimation", "setting": "[3]; of the quantity of product being used", "result": 34, "unit": "%"},
      {"measurement": "Colour stability", "setting": "[4]; [8]", "result": 50, "unit": "min"},
      {"measurement": "Thermal stability", "setting": "[4]; [8]", "result": 50, "unit": "min"},
      {"measurement": "Colour stability", "setting": "[4]; [9]", "result": 45, "unit": "min"},
      {"measurement": "Thermal stability", "setting": "[4]; [9]", "result": 55, "unit": "min"},
      {"measurement": "Colour stability", "setting": "[4]; [10]", "result": 35, "unit": "min"},
      {"measurement": "Thermal stability", "setting": "[4]; [10]", "result": 50, "unit": "min"},
      {"measurement": "basic shade and thermal stability", "setting": "[4]; words", "result": "substantially improves the basic shade and clearly increases the thermal stability"},
      {"measurement": "thermostabilisation of copolymer versus 2-phenyl indole", "setting": "[5]", "result": "better result than 0.3 p.c.r. of 2-phenyl indole"},
      {"measurement": "Oxidation potential", "setting": "[6]", "result": "0.74 ± 0.01"},
      {"measurement": "Oxidation potential", "setting": "[7]", "result": 850, "unit": "millivolts"}
    ]}
  ]
}
